The source of these data is patent US8987193B2, “Nisin derivatives and the use thereof” (University College Cork—National University of Ireland, Cork, priority 2008, dated 2015).

Experiment [1] has as its system Staph. aureus DPC5245. As to the kind of experiment: Deferred antagonism assay. The experiment is classed as cell-based. Particulars: producing strain; diameter of zone minus 5 mm; average of duplicates; St. aureus DPC5245. The procedure, abridged:
(§1)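 Producer strains replicated on GM17 agar, grown overnight, then overlaid with soft agar (0.75% w/v) seeded with indicator strain. Zone size = clearing diameter minus 5 mm growth diameter, relative to NZ9800 pCI372nisA control; mean of duplicates.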

For experiment [2], the system named is Staph. aureus ST528 (MRSA). As to the kind of experiment: Deferred antagonism assay. Particulars: producing strain, diameter of zone minus diameter of bacterial growth (5 mm), average of duplicates. In kind it is cell-based. The procedure, abridged: as §1
Experiment [3] deals with Strep. agalactiae ATCC13813. As to the kind of experiment: Deferred antagonism assay. The experiment is classed as cell-based. Particulars: producing strain, diameter of zone minus 5 mm, average of duplicates.
In another experiment the test system is L. monocytogenes CBC1. As to the kind of experiment: Deferred antagonism assay. The experiment is classed as cell-based, Listeria monocytogenes. The arrangement: key: + = Enhanced bioactivity relative to control; − = Bioactivity equal to or less than control; NA = no activity evident. To be noted: producing strain; L. mono CBC1. The procedure, abridged:
(§2)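 L. lactis NZ9800 strains expressing nisin A hinge variants were replicated or spotted on GM17 agar, grown overnight, then overlaid with 0.75% w/v agar seeded with indicator. Zone size is the clearing diameter minus 5 mm colony growth.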

A further experiment concerns L. monocytogenes CBC2. The experiment is described as follows: Deferred antagonism assay. In kind it is cell-based, Listeria monocytogenes. Also on record: key: + = Enhanced bioactivity relative to control; − = Bioactivity equal to or less than control; NA = no activity evident. To be noted: producing strain; L. mono CBC2. The essentials:
as §2

Another experiment relates to L. monocytogenes CBC3. As to the kind of experiment: Deferred antagonism assay. Particulars: producing strain; L. mono CBC3. Also on record: key: + = Enhanced bioactivity relative to control; − = Bioactivity equal to or less than control; NA = no activity evident. In kind it is cell-based, Listeria monocytogenes. The essentials: as §2
The next experiment relates to L. lactis CBC7. As to the kind of experiment: Deferred antagonism assay. The arrangement: key: + = Enhanced bioactivity relative to control; − = Bioactivity equal to or less than control; NA = no activity evident. Particulars: producing strain. The experiment is classed as cell-based. The procedure, abridged:
as §2

A further experiment deals with L. lactis CBC8. The experiment is described as follows: Deferred antagonism assay. In kind it is cell-based. Also on record: key: + = Enhanced bioactivity relative to control; − = Bioactivity equal to or less than control; NA = no activity evident. To be noted: producing strain. The essentials:
as §2

Another experiment deals with S. aureus CBC4. As to the kind of experiment: Deferred antagonism assay. The arrangement: key: + = Enhanced bioactivity relative to control; − = Bioactivity equal to or less than control; NA = no activity evident. Particulars: producing strain. The experiment is classed as cell-based. The essentials:
as §2

In a further experiment the test system is C. sporogenes CBC5. As to the kind of experiment: Deferred antagonism assay. In kind it is cell-based, Clostridium sporogenes. Also on record: key: + = Enhanced bioactivity relative to control; − = Bioactivity equal to or less than control; NA = no activity evident. Particulars: producing strain.
For the next experiment, the system named is L. plantarum CBC6. The experiment is described as follows: Deferred antagonism assay. Particulars: producing strain. The experiment is classed as cell-based, Lactobacillus plantarum. The arrangement: key: + = Enhanced bioactivity relative to control; − = Bioactivity equal to or less than control; NA = no activity evident. The procedure, abridged:
as §2

Experiment [4] concerns L. lactis HP. The experiment is described as follows: Activity of concentrated peptide preparations. In kind it is cell-based. Particulars: data not shown. An excerpt:
(§3) The most common post-translational modifications of lantibiotics involve the dehydration of serine to dehydroalanine (Dha) and of threonine to dehydrobutyrine (Dhb). These dehydrated residues interact with cysteine to form intramolecular lanthionine and β-methyllanthionine bridges, respectively.

For experiment [5], the system named is Staph. aureus DPC5245. The experiment is described as follows: Activity of concentrated peptide preparations. In kind it is cell-based. To be noted: data not shown.
From the text: as §3

For experiment [6], the system named is Strep. agalactiae ATCC13813. As to the kind of experiment: Activity of concentrated peptide preparations. The experiment is classed as cell-based. Particulars: data not shown.
From the text: as §3

The test system of the next experiment is indicator strains. The experiment is described as follows: Deferred antagonism assays, various indicator strains (summary). In kind it is cell-based. To be noted: relative to nisin A-producing control; value = strains listed. The essentials: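 Producer strains were replicated on GM17 or GM17 x-gal agar, grown overnight, then overlaid with GM17, BHI, TS or MH soft agar (0.75% w/v) seeded with the indicator strain. Zone size was taken as the clearing diameter minus the diameter of bacterial growth (5 mm).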

The test system of experiment [7] is Strep. agalactiae ATCC13813. The experiment is described as follows: Deferred antagonism assay. In kind it is cell-based. Particulars: chromosomal replacement strains; Strep. agalactiae ATCC 13813.
The test system of experiment [8] is L. lactis HP. The experiment is described as follows: Deferred antagonism assay. Particulars: producing strain. The experiment is classed as cell-based, L. lactis spp cremoris.
Procedure: Deferred antagonism assays were performed by replicating strains on GM17 or GM17 x-gal agar plates and allowing them to grow overnight before overlaying with either GM17/BHI/TS/MH agar (0.75% w/v agar) seeded with the appropriate indicator strain. Zone size was calculated as the diameter of the zone of clearing minus the diameter of bacterial growth (5 mm) For higher throughput screening of N20PXX, XM21VX, XXK22T and XXX banks deferred antagonism assays were performed by replicating strains using a 96 pin replicator (Boekel) or spotting 5 μl of a fresh overnight culture on GM17 agar plates and allowing them to grow overnight. […] Additional sets of indicators were employed to further assess/reassess the bioactivity of a number of strains. […] For well-diffusion assays molten agar was cooled to 48° C. and seeded with the appropriate indicator strain. The inoculated medium was rapidly transferred into sterile Petri plates in 50 ml volumes, allowed to solidify and dried. […] Bioactivity was expressed as arbitrary units/ml (AU/ml) and calculated as the reciprocal of the highest dilution that gave a definite zone multiplied by the conversion factor (i.e. 20 when 50 μl was used) (Ryan et al., 1996).
In all cases the bioactivity of each variant was assessed by the size of the zone of inhibition in a deferred antagonism assay against various indicator strains. […]
For the next experiment, the system named is Staph. aureus ST528. The experiment is described as follows: Specific activity of purified peptide, equimolar concentrations. The experiment is classed as cell-based.
In experiment [9] the test system is Strep. agalactiae ATCC13813. The experiment is described as above. In kind it is cell-based.
Procedure: Deferred antagonism assays were performed by replicating strains on GM17 or GM17 x-gal agar plates and allowing them to grow overnight before overlaying with either GM17/BHI/TS/MH agar (0.75% w/v agar) seeded with the appropriate indicator strain. Zone size was calculated as the diameter of the zone of clearing minus the diameter of bacterial growth (5 mm) For higher throughput screening of N20PXX, XM21VX, XXK22T and XXX banks deferred antagonism assays were performed by replicating strains using a 96 pin replicator (Boekel) or spotting 5 μl of a fresh overnight culture on GM17 agar plates and allowing them to grow overnight. […] For well-diffusion assays molten agar was cooled to 48° C. and seeded with the appropriate indicator strain. The inoculated medium was rapidly transferred into sterile Petri plates in 50 ml volumes, allowed to solidify and dried. Wells (4.6 mm in diameter) were then made in the seeded plates. […] Bioactivity was expressed as arbitrary units/ml (AU/ml) and calculated as the reciprocal of the highest dilution that gave a definite zone multiplied by the conversion factor (i.e. 20 when 50 μl was used) (Ryan et al., 1996).
The test system of a further experiment is Listeria innocua FH2051. As to the kind of experiment: Co-cultivation assay in GM17. In kind it is cell-based. Particulars: GM17, 30° C.
The test system of another experiment is Strep. pneumoniae. Particulars: cited from earlier work.

Where two headings read alike, the source gives them in different places. Ends that are not written are not given here.

Procedure for Listeria innocua FH2051: The indicator used for this trial was Listeria innocua FH2051 or L. monocytogenes EGDe. GM17 was co-inoculated with Listeria and the nisin variant producer being tested. […] The culture preparations were incubated at 30° C. Listeria numbers were determined on the basis of viable counts. For this purpose a dilution series were prepared at specific time intervals and plated onto Listeria selective agar base (Oxford formulation) (Oxoid Ltd.).
Assessment of the ability of nisin-variant producing lactococci to inhibit the growth of Listeria in broth: The ability of Listeria to survive in the presence of nisin-producing L. lactis strains was examined using a co-cultivation approach. Initial trials employed Listeria innocua FH2051 as a target.

With “M21C: nisin A derivative, hinge substitution M21C (ITSISLCTPGCKTGALMGCNCKTATCHCSIHVSK; cysteine pairing not given here; also: lantibiotic nisin-A; UniProt P13068 24-57, looked up, variant M21C)”, the “zone size relative to that of the NZ9800 pCI372nisA control” value (“zone size relative to that” below) (with Staph. aureus DPC5245 [1]; in experiment [2]; in experiment [3]) was 0% throughout. Also, the “Bioactivity relative to control” value with L. monocytogenes CBC1, in the experiment with L. monocytogenes CBC2, in the experiment on L. monocytogenes CBC3, in the experiment with L. lactis CBC7, in the experiment with L. lactis CBC8 and with S. aureus CBC4 was “−” in each case. Besides, the “Bioactivity relative to control” value with C. sporogenes CBC5 and in the experiment with L. plantarum CBC6 was “−” in each case. Moreover, the “activity relative to the wild-type peptide” value in the experiment with L. lactis HP [4] is recorded as “drastically reduced”; with Staph. aureus DPC5245 [5] it was “undetectable”; in [6], “undetectable”.
For the substance “N20C: nisin A derivative, hinge substitution N20C (ITSISLCTPGCKTGALMGCCMKTATCHCSIHVSK; cysteine pairing not given here; also: lantibiotic nisin-A; UniProt P13068 24-57, looked up, variant N20C)”, the “zone size relative to that” value (in the experiment on Staph. aureus DPC5245 [1]; in experiment [2]; in experiment [3]) was 0% in each case. The “activity relative to the wild-type peptide” value in the experiment with L. lactis HP [4] is recorded as “drastically reduced”; in the experiment with Staph. aureus DPC5245 [5], “undetectable”; in experiment [6], “undetectable”.
“NisinA K22S (ITSISLCTPGCKTGALMGCNMSTATCHCSIHVSK; not fully specified; also: lantibiotic nisin: dehydrated residues and thioether rings not placed; UniProt P13068 24-57, looked up, variant K22S) [nisin A derivative, hinge substitution K22S]”: the “zone size relative to that” value with Staph. aureus DPC5245 [1] was found to be 124%; in [2], 154%; in experiment [3] it was 142%. Besides, the “Bioactivity relative to control” value in the experiment on L. monocytogenes CBC1 was “−”; in the experiment with L. monocytogenes CBC2, “+”; with L. monocytogenes CBC3, “−”; with L. lactis CBC7, “−”; in the experiment with L. lactis CBC8, “+”; in the experiment on S. aureus CBC4 it was “−”. The “Bioactivity relative to control” value in the experiment on C. sporogenes CBC5 and with L. plantarum CBC6 was “−” throughout. The “Strain(s) against which the derivative (producing strain) displays enhanced bioactivity” value in the experiment with indicator strains was “Strep. agalactiae ATCC13813, Staph. aureus ST528 and Staph. aureus DPC5245 and L. monocytogenes CBC2 and CBC8 and L. lactis CBC8 and L. monocytogenes CBC2, L. lactis CBC8, S. aureus ST528”. Moreover, the “bacteriocin production/bioactivity relative to L. lactis NZ9700” value in experiment [7] was “enhanced”.
Turning to “NisinA N20P (ITSISLCTPGCKTGALMGCPMKTATCHCSIHVSK; not fully specified; also: lantibiotic nisin: dehydrated residues and thioether rings not placed; UniProt P13068 24-57, looked up, variant N20P) [nisin A derivative, hinge substitution N20P]”, the “zone size relative to that” value in the experiment with Staph. aureus DPC5245 [1] stood at 123%; in experiment [2], 125%; in experiment [3] it was 22%. For the same substance, the “Bioactivity relative to control” value in the experiment on L. monocytogenes CBC1 is listed as “−”; with L. monocytogenes CBC2, “−”; in the experiment on L. monocytogenes CBC3, “+”; in the experiment on L. lactis CBC7 it was “+”; in the experiment with L. lactis CBC8, “−”; with S. aureus CBC4 it was “+”. The “Bioactivity relative to control” value is “+” in the experiment with C. sporogenes CBC5 and “−” in the experiment on L. plantarum CBC6. In the experiment with L. lactis HP [8], the “bioactivity against L. lactis HP relative to control” value is reported as “enhanced”. In addition, the “Strain(s) against which the derivative (producing strain) displays enhanced bioactivity” value in the experiment on indicator strains was “CBC4, L. monocytogenes CBC3, C. sporogenes CBC5 and L. lactis CBC7”. Further, the “increased specific activity relative to nisin A” value in the experiment with Staph. aureus ST528 is recorded as 100%. Moreover, the “reduction in specific activity relative to nisin A” value in experiment [9] was 75%. In the experiment with Listeria innocua FH2051, the “impact on growth of FH2051” value was “reduced its numbers”. Further, the “bacteriocin production/bioactivity relative to L. lactis NZ9700” value in experiment [7] is “enhanced”.
For the substance nisin, the “minimum inhibitory concentration (MIC)” value was 0.4 µg/mL in the experiment with Strep. pneumoniae (penicillin-susceptible strain before serial exposure to nisin) and 6.4 µg/mL in the experiment on Strep. pneumoniae (stable nisin-resistant mutants after serial exposure to nisin (1 mg/L)).
